Experimental findings from publication PMC11855144, “Role of Human DNA Ligases in Mediating Pharmacological Activities of Flavonoids” (International Journal of Molecular Sciences, 2025) are described below.

Experiment [1] deals with human DNA ligase I (Homo sapiens, UniProt P18858). In words: nick-sealing DNA ligase assay (gel electrophoresis), DNA ligase I. The format is biochemical. The note with it: ATP 10 μM, DNA substrate 50 nM, human DNA ligase I 0.5 nM; for IC50: read-out: IC50 against human DNA ligase I (converted). The method, then:
In this study, a standard nick-sealing assay was used to identify potential human DNA ligase inhibitors from representative flavonoids. […] Selected flavonoids with the resorcinol moiety in their A rings were tested as potential DNA ligase inhibitors. Epigallocatechin gallate (EGCG) is also a flavonoid found in plants, herbs, fruits, and green tea. Rutin is a flavonoid glycoside combining the flavonol quercetin and the disaccharide rutinose found in a wide variety of plants, including citrus. Quercetin is a plant flavonoid found in many fruits, vegetables, and other foods.
Figure 3 The effects of selected flavonoids on human DNA ligase I activity. DNA ligase assays were performed in reaction mixtures in the presence of ATP (10 μM), DNA substrate (50 nM), and human DNA ligase I (0.5 nM) as previously described.
Figure 4 The effects of cyaniding and rosinidin on human DNA ligase I activity. DNA ligase assays were performed in reaction mixtures in the presence of ATP (10 μM), DNA substrate (50 nM), and human DNA ligase I (0.5 nM) as previously described.
(§1) A 39 base pair nicked duplex was constructed and used as a substrate for the ligase reaction. In brief, the first 19 base pair oligonucleotide (5′-CGTAAAACGACGGCCAGTG-3′) and the second 20 base pair oligonucleotide (5′-[…]-3′) labeled with radioactive ^32P were annealed to the complementary 39 base pair oligonucleotide (5′-[…]-3′) to construct a 39 base pair nicked duplex as previously described. The resulting nicked duplex DNA was purified via 8% nondenaturing polyacrylamide gel electrophoresis.
(§2) DNA ligase I activity was routinely assayed according to a modified procedure described previously by determining the ligation of two oligonucleotides, which are hybridized to a complementary 39-mer oligonucleotide. Ligation of 5′-[^32P] end-labeled 20-mer oligonucleotide to the unlabeled 19-mer oligonucleotide was analyzed via polyacrylamide gel electrophoresis in the presence of 8 M urea. The assays were performed at least twice, and representative data are shown in this paper.

The subject of experiment [2] is γH2AX protein. The experiment in a line: γH2AX protein level in Caco-2 cells (Western blot). In kind it is cell-based, human. The note with it: 48 h, versus solvent control. From the text:
(§3) Some flavonoids are known to be cytotoxic to different types of human cancer cell lines. […] Phase contrast views reveal that rutin-treated cells are relatively thin and shrunken, consistent with the reduced cellular densities commonly observed in cultures exposed to cytotoxic agents (Figure 7A). […] The γH2AX is a sensitive and selective marker for DSBs, as phosphorylation of H2AX (γH2AX) is increased at such breakage sites. […] Phase contrast micrographs of Caco-2 cells treated with various concentrations of rutin for 48 h. Photographs taken at 10× magnification: (A) increased expressions of γH2AX protein in Caco-2 cells incubated with rutin for 48 h, compared with corresponding solvent control group, as measured via Western blot (B).
Background: In western blotting, separated proteins are transferred to a membrane and probed.

Experiment [3] concerns the target T1, human DNA ligase III (Homo sapiens, UniProt P49916).
T1 sequence (P49916 43-1009): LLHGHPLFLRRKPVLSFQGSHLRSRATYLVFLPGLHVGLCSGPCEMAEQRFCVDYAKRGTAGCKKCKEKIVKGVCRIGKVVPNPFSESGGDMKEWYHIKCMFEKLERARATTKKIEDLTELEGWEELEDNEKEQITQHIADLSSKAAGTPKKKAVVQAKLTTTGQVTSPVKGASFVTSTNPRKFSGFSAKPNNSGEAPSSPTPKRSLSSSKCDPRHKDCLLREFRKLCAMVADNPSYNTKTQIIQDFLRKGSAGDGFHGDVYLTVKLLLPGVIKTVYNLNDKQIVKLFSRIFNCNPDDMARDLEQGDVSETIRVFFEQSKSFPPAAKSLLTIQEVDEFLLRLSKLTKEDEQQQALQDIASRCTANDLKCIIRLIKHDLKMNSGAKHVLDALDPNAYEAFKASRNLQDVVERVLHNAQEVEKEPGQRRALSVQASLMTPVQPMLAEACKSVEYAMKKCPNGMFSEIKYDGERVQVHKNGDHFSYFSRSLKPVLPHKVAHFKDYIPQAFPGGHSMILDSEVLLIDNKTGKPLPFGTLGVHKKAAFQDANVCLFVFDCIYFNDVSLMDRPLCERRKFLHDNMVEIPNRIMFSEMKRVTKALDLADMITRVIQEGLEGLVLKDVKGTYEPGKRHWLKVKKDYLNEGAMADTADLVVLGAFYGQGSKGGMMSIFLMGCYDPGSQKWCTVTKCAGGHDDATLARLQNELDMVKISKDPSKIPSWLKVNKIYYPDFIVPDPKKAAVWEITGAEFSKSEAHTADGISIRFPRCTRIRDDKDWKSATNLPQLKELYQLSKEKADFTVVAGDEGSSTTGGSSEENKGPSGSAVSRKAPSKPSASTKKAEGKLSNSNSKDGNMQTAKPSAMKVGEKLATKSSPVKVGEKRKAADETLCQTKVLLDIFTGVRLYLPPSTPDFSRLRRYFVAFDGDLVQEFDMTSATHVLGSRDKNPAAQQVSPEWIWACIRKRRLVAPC
In words: nick-sealing DNA ligase assay, DNA ligase III. In kind it is biochemical. The note with it: ATP 10 μM, DNA substrate 50 nM; read-out: IC50 against human DNA ligase III (converted). Here is the method: (§4) To validate the results from the molecular modeling studies, we also tested the effects of rutin on human DNA ligase III and IV activity.
(§5) Figure 6 The effects of rutin on human DNA ligases III and IV activities. DNA ligase assays were performed in reaction mixtures in the presence of ATP (10 μM), DNA substrate (50 nM), and human DNA ligase I (0.5 nM) as previously described.
as §1, §2

In experiment [4] the test system is Caco-2 cells. The experiment in a line: Caco-2 cell growth and morphology (phase contrast microscopy). The format is cell-based, human.
Text: as §3, with “(B). The human intestinal Caco-2 cells were grown at 37 °C and 5% CO2 in a humidified atmosphere, and treated and untreated control cells were examined using an inverted phase-contrast microscope (Fisher Scientific Inverted Phase Contrast Microscope EQ-006, Pittsburgh, PA, USA) to assess cell shape and morphology.” for “(B).”

Experiment [5] deals with T2, human DNA ligase IV (Homo sapiens, UniProt P49917).
T2 sequence (P49917 1-911): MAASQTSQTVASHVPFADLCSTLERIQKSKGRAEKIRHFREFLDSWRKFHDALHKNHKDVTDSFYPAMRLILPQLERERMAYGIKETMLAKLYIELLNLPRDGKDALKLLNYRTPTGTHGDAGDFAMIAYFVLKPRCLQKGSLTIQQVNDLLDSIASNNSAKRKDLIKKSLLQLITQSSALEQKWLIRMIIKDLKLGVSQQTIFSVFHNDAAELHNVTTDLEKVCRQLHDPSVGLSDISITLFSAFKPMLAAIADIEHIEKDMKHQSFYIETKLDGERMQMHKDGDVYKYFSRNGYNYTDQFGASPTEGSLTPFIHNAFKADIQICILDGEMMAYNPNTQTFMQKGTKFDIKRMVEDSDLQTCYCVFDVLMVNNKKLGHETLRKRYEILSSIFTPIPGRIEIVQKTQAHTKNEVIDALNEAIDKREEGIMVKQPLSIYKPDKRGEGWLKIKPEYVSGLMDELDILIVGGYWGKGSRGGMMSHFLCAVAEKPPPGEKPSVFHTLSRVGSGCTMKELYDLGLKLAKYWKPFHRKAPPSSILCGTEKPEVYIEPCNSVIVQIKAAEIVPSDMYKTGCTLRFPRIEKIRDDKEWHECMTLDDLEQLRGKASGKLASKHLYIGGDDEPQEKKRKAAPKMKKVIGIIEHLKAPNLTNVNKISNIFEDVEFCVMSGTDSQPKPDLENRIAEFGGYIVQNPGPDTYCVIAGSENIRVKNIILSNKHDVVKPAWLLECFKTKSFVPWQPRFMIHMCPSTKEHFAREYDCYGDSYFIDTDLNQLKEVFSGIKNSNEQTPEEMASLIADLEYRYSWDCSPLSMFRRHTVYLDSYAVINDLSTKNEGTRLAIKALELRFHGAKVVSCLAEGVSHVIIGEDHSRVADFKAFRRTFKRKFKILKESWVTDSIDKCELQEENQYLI
The experiment in a line: nick-sealing DNA ligase assay, DNA ligase IV. The following applies: ATP 10 μM, DNA substrate 50 nM; read-out: IC50 against human DNA ligase IV (converted). The format is biochemical. The method, then:
as §4, §5, §1, §2

Values after ≈ are worked out from the molar mass of the structure shown.

Sequence of human DNA ligase I (P18858 whole entry): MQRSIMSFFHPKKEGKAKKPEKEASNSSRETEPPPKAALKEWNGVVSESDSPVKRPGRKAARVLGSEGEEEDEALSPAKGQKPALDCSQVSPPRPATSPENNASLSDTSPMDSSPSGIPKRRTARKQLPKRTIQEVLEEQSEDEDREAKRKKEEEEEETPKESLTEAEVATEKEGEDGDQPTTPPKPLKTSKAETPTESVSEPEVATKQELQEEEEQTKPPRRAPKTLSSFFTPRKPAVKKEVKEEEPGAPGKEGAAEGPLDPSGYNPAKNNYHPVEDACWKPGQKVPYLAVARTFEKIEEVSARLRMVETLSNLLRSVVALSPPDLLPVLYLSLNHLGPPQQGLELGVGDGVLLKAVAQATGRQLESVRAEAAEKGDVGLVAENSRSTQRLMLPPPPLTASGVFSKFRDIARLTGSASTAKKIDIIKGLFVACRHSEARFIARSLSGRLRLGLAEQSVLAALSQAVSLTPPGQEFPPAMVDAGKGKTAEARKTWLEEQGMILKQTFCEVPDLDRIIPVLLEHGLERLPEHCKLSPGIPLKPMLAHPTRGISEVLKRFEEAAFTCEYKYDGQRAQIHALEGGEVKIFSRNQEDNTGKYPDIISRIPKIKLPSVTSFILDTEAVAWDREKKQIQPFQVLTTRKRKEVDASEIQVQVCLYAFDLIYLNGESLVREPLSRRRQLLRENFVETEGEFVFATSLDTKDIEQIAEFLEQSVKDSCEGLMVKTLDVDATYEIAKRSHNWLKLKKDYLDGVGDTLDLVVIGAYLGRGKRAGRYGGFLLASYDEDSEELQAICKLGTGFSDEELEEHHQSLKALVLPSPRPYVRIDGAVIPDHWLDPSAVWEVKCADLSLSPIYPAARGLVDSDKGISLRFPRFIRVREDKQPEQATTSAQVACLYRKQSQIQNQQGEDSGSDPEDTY

The IC50 is the concentration at which inhibition is half-maximal. `Oc1cc(O)c2c(c1)O[C@H](c1cc(O)c(O)c(O)c1)[C@H](O)C2` [epigallocatechin]: the concentration for half-maximal inhibition (IC50) in experiment [1] is 1630 nM.
Turning to `C[C@@H]1O[C@@H](OC[C@H]2O[C@@H](Oc3c(-c4ccc(O)c(O)c4)oc4cc(O)cc(O)c4c3=O)[C@H](O)[C@@H](O)[C@@H]2O)[C@H](O)[C@H](O)[C@H]1O` [rutin], the “levels of γH2AX protein” value in experiment [2] was “increases levels of γH2AX protein in a dose-dependent manner”. Besides, the IC50 is 819 nM in experiment [3]; 25 µg/mL (≈ 40.9 µM) in experiment [4] (Homo sapiens, Caco-2); 4910 nM in experiment [1]; 1640 nM in experiment [5]. In addition, the “effect on cell growth” value in experiment [4] (Caco-2 cells, 48 h, concentrations lower than IC50) was “inhibitory effect on cell growth”.
`COc1cc(O)c2cc(O)c(-c3ccc(O)c(OC)c3)[o+]c2c1` [rosinidin]: in experiment [1], the “activity against human DNA ligase I” value is “little activity”.
For the molecule `O=c1c(O)c(-c2ccc(O)c(O)c2)oc2cc(O)cc(O)c12` [quercetin], in experiment [1], the IC50 was 1650 nM.
The same measure, in the same setting: as for `Oc1cc(O)c2cc(O)c(-c3ccc(O)c(O)c3)[o+]c2c1` [cyanidin], the figure is ~3480 nM.
